Assay results published in ChEMBL document CHEMBL3046100, “Synthesis and anti-congestive heart failure activity of novel levosimendan analogues” (2011).

What was measured:
Type in all cases: functional, Artery
Rattus norvegicus [1] = assay: Anticongestive heart failure activity in Rattus norvegicus (rat) assessed as blood pressure at 50 mg/kg, intraduodenal measured at 30 min by tracheal intubation method (reference value: 88 +/- 3 mmHg)
Rattus norvegicus [2] = assay: Anticongestive heart failure activity in Rattus norvegicus (rat) assessed as blood pressure at 50 mg/kg, intraduodenal measured at 15 min by tracheal intubation method (reference value: 86 +/- 3 mmHg)
Rattus norvegicus [3] = assay: Anticongestive heart failure activity in Rattus norvegicus (rat) assessed as blood pressure at 50 mg/kg, intraduodenal measured at 20 min by tracheal intubation method (reference value: 81 +/- 4 mmHg)
Rattus norvegicus [4] = assay: Anticongestive heart failure activity in Rattus norvegicus (rat) assessed as blood pressure at 50 mg/kg, intraduodenal measured at 5 min by tracheal intubation method (reference value: 97 +/- 3 mmHg)
Rattus norvegicus [5] = assay: Anticongestive heart failure activity in Rattus norvegicus (rat) assessed as blood pressure at 50 mg/kg, intraduodenal measured at 25 min by tracheal intubation method (reference value: 79 +/- 4 mmHg)
Rattus norvegicus [6] = assay: Anticongestive heart failure activity in Rattus norvegicus (rat) assessed as blood pressure at 50 mg/kg, intraduodenal measured at 10 min by tracheal intubation method (reference value: 95 +/- 3 mmHg)

C[C@@H]1CC(=O)NN=C1c1ccc(/N=C/c2ccc([N+](=O)[O-])cc2)cc1
Activity (Rattus norvegicus [1]): 29 mmHg | Activity (Rattus norvegicus [2]): 31 mmHg | Activity (Rattus norvegicus [3]): 29 mmHg | Activity (Rattus norvegicus [4]): 56 mmHg | Activity (Rattus norvegicus [5]): 28 mmHg | Activity (Rattus norvegicus [6]): 35 mmHg

C[C@@H]1CC(=O)NN=C1c1ccc(/N=C/c2cccc([N+](=O)[O-])c2)cc1
Activity (Rattus norvegicus [1]): 67 mmHg | Activity (Rattus norvegicus [2]): 69 mmHg | Activity (Rattus norvegicus [3]): 68 mmHg | Activity (Rattus norvegicus [4]): 77 mmHg | Activity (Rattus norvegicus [5]): 67 mmHg | Activity (Rattus norvegicus [6]): 71 mmHg

C[C@@H]1CC(=O)NN=C1c1ccc(/N=C/c2ccc(O)c(O)c2)cc1
Activity (Rattus norvegicus [1]): 53 mmHg | Activity (Rattus norvegicus [2]): 53 mmHg | Activity (Rattus norvegicus [3]): 53 mmHg | Activity (Rattus norvegicus [4]): 77 mmHg | Activity (Rattus norvegicus [5]): 53 mmHg | Activity (Rattus norvegicus [6]): 63 mmHg

C[C@@H]1CC(=O)NN=C1c1ccc(/N=C/c2ccc(O)cc2)cc1
Activity (Rattus norvegicus [1]): 30 mmHg | Activity (Rattus norvegicus [2]): 32 mmHg | Activity (Rattus norvegicus [3]): 30 mmHg | Activity (Rattus norvegicus [4]): 80 mmHg | Activity (Rattus norvegicus [5]): 29 mmHg | Activity (Rattus norvegicus [6]): 44 mmHg

C[C@@H]1CC(=O)NN=C1c1ccc(/N=C/c2ccccc2O)cc1
Activity (Rattus norvegicus [1]): 26 mmHg | Activity (Rattus norvegicus [2]): 28 mmHg | Activity (Rattus norvegicus [3]): 26 mmHg | Activity (Rattus norvegicus [4]): 55 mmHg | Activity (Rattus norvegicus [5]): 26 mmHg | Activity (Rattus norvegicus [6]): 28 mmHg

C[C@@H]1CC(=O)NN=C1c1ccc(/N=C/c2ccccc2Cl)cc1
Activity (Rattus norvegicus [1]): 32 mmHg | Activity (Rattus norvegicus [2]): 55 mmHg | Activity (Rattus norvegicus [3]): 34 mmHg | Activity (Rattus norvegicus [4]): 81 mmHg | Activity (Rattus norvegicus [5]): 34 mmHg | Activity (Rattus norvegicus [6]): 68 mmHg

COc1cc(/C=N/c2ccc(C3=NNC(=O)C[C@H]3C)cc2)cc(OC)c1OC
Activity (Rattus norvegicus [1]): 27 mmHg | Activity (Rattus norvegicus [2]): 37 mmHg | Activity (Rattus norvegicus [3]): 28 mmHg | Activity (Rattus norvegicus [4]): 77 mmHg | Activity (Rattus norvegicus [5]): 27 mmHg | Activity (Rattus norvegicus [6]): 46 mmHg

C[C@@H]1CC(=O)NN=C1c1ccc(/N=C/c2ccc(Cl)c(Cl)c2)cc1
Activity (Rattus norvegicus [1]): 25 mmHg | Activity (Rattus norvegicus [2]): 25 mmHg | Activity (Rattus norvegicus [3]): 24 mmHg | Activity (Rattus norvegicus [4]): 52 mmHg | Activity (Rattus norvegicus [5]): 25 mmHg | Activity (Rattus norvegicus [6]): 33 mmHg

C[C@@H]1CC(=O)NN=C1c1ccc(/N=C/c2ccccn2)cc1
Activity (Rattus norvegicus [1]): 29 mmHg | Activity (Rattus norvegicus [2]): 30 mmHg | Activity (Rattus norvegicus [3]): 30 mmHg | Activity (Rattus norvegicus [4]): 52 mmHg | Activity (Rattus norvegicus [5]): 29 mmHg | Activity (Rattus norvegicus [6]): 39 mmHg

C[C@@H]1CC(=O)NN=C1c1ccc(/N=C/c2ccco2)cc1
Activity (Rattus norvegicus [1]): 24 mmHg | Activity (Rattus norvegicus [2]): 25 mmHg | Activity (Rattus norvegicus [3]): 25 mmHg | Activity (Rattus norvegicus [4]): 45 mmHg | Activity (Rattus norvegicus [5]): 23 mmHg | Activity (Rattus norvegicus [6]): 30 mmHg

C[C@@H]1CC(=O)NN=C1c1ccc(NN=C(C#N)C#N)cc1 [LEVOSIMENDAN]
Activity (Rattus norvegicus [1]): 31 mmHg | Activity (Rattus norvegicus [2]): 34 mmHg | Activity (Rattus norvegicus [3]): 36 mmHg | Activity (Rattus norvegicus [4]): 51 mmHg | Activity (Rattus norvegicus [5]): 34 mmHg | Activity (Rattus norvegicus [6]): 39 mmHg
